From patent EP1669379B1, “3,5-DIMETHYL-1-ADAMANTYL-AMMONIUM POLYMERIC SALTS AND THE USE THEREOF IN THE FORM OF ANTIVIRAL AGENTS” (priority 2003, dated 2005)
Structures can show the parent of a compound that is named as a salt. Where two headings read alike, the source gives them in different places.

Legend:
[1] = acute toxicity, single oral administration to mice (LD50); conditions: both sexes, Balb, mouse, in vivo
Procedure: The toxicity level of claimed compounds was assessed according to a general index of acute toxicity - average fatal dose of LD50. The study was held with a single oral administration of the agent to white mice of both sexes, line "Balb", weight 18 - 20 g, and to white rats, line "Vistar", weight 130 - 250 g (female) and 225 - 370 g (male). The medications were administered to mice in the dose range from 250 to 1100 mg/kg, and to rats in the range of 480 - 2315 mg/kg.

[2] = tested on: influenza A/Aichi/2/68 virus; experiment: duration of antiviral activity in infected mice, preventive application scheme, single oral dose; type: in vivo; conditions: for Protection index of medication (%) when administered in specified periods (hours) before contamination: mice, single oral dose 100mg/kg as calculated per equimolecular DMAAM content
Procedure: (§1) The tests of antiviral activity of produced polymeric salts were conducted against the viruses of types A and B influenza using the tissue culture of chorionallantoic coat fragments from chick-embryos (model CAC) and infecting animals (mice).
(§2) In each experimental and control (placebo) group 20 mice of both sexes were infected.

[3] = tested on: virus of the influenza of the type A/Victoria35/72; type: cell-based; conditions: CAC model; dose 25.0 mcg/ml as calculated per equimolecular content of DMAAM
[4] = tested on: virus of the influenza A/Li/40; experiment: antiviral activity in tissue culture of chorionallantoic coat fragments (CAC model), A/Li/40; type: cell-based, chick-embryos; conditions: dose 25.0 mcg/ml as calculated per equimolecular content of DMAAM
Procedure: as §1

[5] = tested on: influenza virus of B type; experiment: summary statement on activity against influenza virus of B type; conditions: conclusion from the tables; protection index less than 20 is considered inactive
Text: At the same time synthesized (claimed) polymeric compounds of 3.5-dimethyl-1-adamantylamine have an effective level of antiviral activity against the influenza virus of B type, both in the infection model of chick-embryo and mice.

[6] = tested on: virus of the influenza B/Li/40; experiment: antiviral activity in infected mice, medical and preventive treatment scheme, oral; type: in vivo; conditions: single dose 50 mg/ml as calculated per equimolecular content of DMAAM, administration frequency 5
Procedure: as §1, §2

[7] = tested on: influenza virus of B type; conditions: statement with reference to USSR author's certificates; cited from earlier work
solubility (qualitative) = type: physicochemical

For `CC12CC3CC(C)(C1)CC(N)(C3)C2` [HC - DMAAM (memantine), hydrochloride 3.5-dimethyl-1-adamantylamine], the LD50 [1] was 363 mg/kg, the “Protection index of medication (%) when administered in specified periods (hours) before contamination” value (“Protection index of medication (%)” for short) ([2]; 1 hour before contamination) was 37% and the “Protection index of medication (%)” value ([2]; 24 hours before contamination) was 28%. For the same compound, the “Protection index of medication (%)” value ([2]; 48 hours before contamination) was 22%, the “Protection index of medication (%)” value ([2]; 72 hours before contamination) was 11% and the “Protection index of medication (%)” value ([2]; 96 hours before contamination) was 9%. The “Protection index of medication (%)” value ([2]; 120 hours before contamination) was 7%, the “time of administration before infection at which the medication was effective” value ([2]; prevention scheme, same dose as calculated per 3.5-dimethyl-1-adamantylamine content) was 24 h and the “Protection index of the medication, %” value [3] was 39%. For the same compound, the “Protection index of the medication, %” value [4] was 0%, the “antiviral activity against the influenza virus of B type” value (“antiviral activity” below) [5] was “is not effective” and the “Protection index of medication, %” value [6] was 7.1%. For the same compound, the “The number of animals Died, %” value [6] was 65% and the “The number of animals Died, Animal units” value [6] was 13.
In the case of `CC(N)C12CC3CC(CC(C3)C1)C2.Cl` (stereo not drawn) [remantadin, hydrochloride α-methyl-α-(1-adamantyl)methylamine], the “antiviral activity” value [7] is listed as “is not effective”.
In the case of `Cl.NC12CC3CC(CC(C3)C1)C2` [midantan, hydrochloride 1-adamatilamine], the “antiviral activity” value [7] is given as “is not effective”.
In the case of `CC12CC3CC(C)(C1)CC(N)(C3)C2` [3.5-dimethyl-l-adamantylamine, 3.5-dimethyl-1-adamantylamine], the solubility in water (solubility (qualitative)) is reported as “insoluble in water”.
